1 compound from article PMC9959501, “Critical Analysis and Optimization of Stoichiometric Ratio of Drug-Coformer on Cocrystal Design: Molecular Docking, In Vitro and In Vivo Assessment” (Pharmaceuticals, 2023) can be followed below.

The nature of data set [1]: Equilibrium solubility analysis. The data set is classed as physicochemical. Particulars: distilled water, 25 °C, stirred 24 h; mean ± SD, n = 3. The protocol:
Improvement in solubility may due to the formation of hydrogen bonds between the imidazole rings of telmisartan and polar carboxylate hydrogens of maleic acid in presence of solvents.
The solubility analysis of telmisartan and prepared telmisartan-maleic acid cocrystals were assessed by placing an excessive amount of sample in 50 mL of distilled water at 25 °C. Then it was stirred for 24 h using a magnetic stirrer to ensure that the solution must reach equilibrium, and then sonicated (Imeco Sonifier, Imeco Ultrasonics, Pune, India) for 15 min. Then the solution was filtered and subjected to spectrophotometric analysis at 296 nm, using a UV-visible spectrophotometer (UV-1800 Shimadzu, Kyoto, Japan).

The nature of data set [2]: In vitro dissolution study (USP apparatus II). In kind it is physicochemical. Particulars: phosphate buffer pH 7.5, 100 rpm, 37 ± 0.5 °C. As to the method:
The dissolution study was performed in a phosphate buffer (pH 7.5) using a USP dissolution rate test apparatus II (LAB INDIA, DS 8000, Thane, India) at 100 rpm and 37 ± 0.5 °C (Figure 7). […] The enhancement in dissolution may be due to the formation of hydrogen bonds between telmisartan and maleic acid in presence of solvents. The computational simulation approach already predicted this finding. Another reason for the enhancement of dissolution may be a reduction in crystal size, solubilization effect of the carrier as well as improved wettability of the drug in presence of solvents.
A USP dissolution rate test apparatus II (LAB INDIA, DS 8000, India) was used to perform the dissolution studies of pure telmisartan and prepared multicomponent solid form (telmisartan cocrystals) in phosphate buffer medium (pH 7.5) at 37 ± 0.5 °C. An accurately weighed amount of sample was placed in a 900 mL dissolution medium and stirred at 100 rpm. At each specific time interval, a 5 mL sample was withdrawn and replaced by an equal volume of fresh pre-warmed phosphate buffer (pH 7.5) to maintain the sink condition throughout the experiment. The samples were filtered through Whatman filter paper (0.45 µm) and analyzed at 296 nm using a UV-visible spectrophotometer (UV-1800 Shimadzu, Japan). The dissolution studies were conducted in triplicate.

Data set [3] is described as follows: Pharmacokinetic study in rats. The data set is classed as in vivo. The note with it: male, Wistar, po, 1 mg/kg telmisartan equivalent in 0.5% w/v sodium carboxymethylcellulose, mean ± SD, n = 6. As to the method: In vivo study protocol was approved by the Institutional Animal Ethical Committee, Dr. B. C. Roy College of Pharmacy & AHS., Durgapur, West Bengal, India (Approval No: BCRCP/IAEC/8/2019). The pharmacokinetic study was performed using male Wistar rats (180–200 g). The animals were allowed to be acclimatized for a period of 1 week in our laboratory environment prior to the experiment and had free access to water and food.
The animals were divided into two groups. Group 1 (6 animals) received pure telmisartan (1 mg/kg) with 0.5% w/v sodium carboxymethylcellulose, and Group 2 (6 animals) received optimized cocrystals (equivalent to 1 mg/kg pure telmisartan) with 0.5% w/v sodium carboxymethylcellulose. Blood samples were collected at predetermined time intervals from the retro-orbital venous plexus of the rats and centrifuged for 5 min at 10,000 rpm. The plasma was separated and drug analysis was carried out by RP-HPLC method using the software ‘Class-Vp series version 5.03 (Shimadzu)’. The in vivo pharmacokinetic parameters such as peak plasma concentration (Cmax), total area under the plasma concentration-time curve (AUC0–∞), elimination rate constant (KE), and relative bioavailability (%) were calculated by using Kinetica software (version 4.4.1; Thermo Fisher Scientific, Waltham, MA, USA).

Data set [4] is described as follows: Crystallite size from PXRD data (Scherrer's formula). The data set is classed as physicochemical. As to the method:
An XRD study was performed to assess the physico-chemical state of telmisartan in prepared telmisartan-maleic acid cocrystals. The XRD study was performed by X-Ray Diffractometer (X’Pert Pro, Panalytical, Almelo, The Netherlands) using monochromatized Cu Kα radiation (λ = 1.54 Å) at a voltage of 45 kV and a current of 40 mA. Measurements were carried out in the angular scan range from 5° to 50° (2θ) at a scan speed of 1°/min. This study also helps to determine the size of the formed crystallite using Scherrer’s formula. Crystallite size Dp=K λ/Bcosθ, where Dp is average crystallite size (nm), K is Scherrer constant, λ is X-ray wavelength, B is FWHM (Full Width at Half Maximum) of XRD peak, and θ is XRD peak position.

Molecules are shown by their SMILES. In brackets after ≈: the same amount, converted by molar mass.

In general, solubility refers to the dissolved amount per volume that the medium holds. The term AUC(0-inf) denotes the area under the concentration-time curve extrapolated to infinity. The Cmax is the peak of the concentration-time curve.

Compound `CCCc1nc2c(C)cc(-c3nc4ccccc4n3C)cc2n1Cc1ccc(-c2ccccc2C(=O)O)cc1` [PD, Telmisartan] yielded a solubility at 24 h in data set [1] of 5.15 ± 1.16 µg/mL (≈ 10 µM). Further, the “Percentage drug dissolved within 120 min” value in data set [2] worked out at 29.04 ± 2.06%. In data set [3] (plasma, rat, read-out: KE (elimination rate constant) (converted)), the k el was 3e-05 s⁻¹. In data set [3] (rat plasma), the AUC(0-inf) was 4180 ± 87.8 ng·h/mL and the Cmax was 945 ± 27.9 ng/mL. The compound further had an Average crystallite size in data set [4] of 893.51 ± 42.82 nm.
